Twelve compounds from patent US20230055237A1, “COMPOUNDS AND METHODS FOR THE TREATMENT OF CYSTIC FIBROSIS” (Flatley Discovery Lab, LLC, priority 2019, published 2023) can be followed below.

SMILES strings stand for the structures.

For the experiment, the target named is T1, CFTR (Homo sapiens, UniProt P13569, DEL508-508).
T1 construct: Primary CF airway epithelial cells were obtained from the UNC Cystic Fibrosis Tissue Procurement and Cell Culture Core; host or cells: primary CF airway epithelial cells, differentiated at the air-liquid interface
T1 sequence (P13569 with tags, fused parts or gaps DEL508-508): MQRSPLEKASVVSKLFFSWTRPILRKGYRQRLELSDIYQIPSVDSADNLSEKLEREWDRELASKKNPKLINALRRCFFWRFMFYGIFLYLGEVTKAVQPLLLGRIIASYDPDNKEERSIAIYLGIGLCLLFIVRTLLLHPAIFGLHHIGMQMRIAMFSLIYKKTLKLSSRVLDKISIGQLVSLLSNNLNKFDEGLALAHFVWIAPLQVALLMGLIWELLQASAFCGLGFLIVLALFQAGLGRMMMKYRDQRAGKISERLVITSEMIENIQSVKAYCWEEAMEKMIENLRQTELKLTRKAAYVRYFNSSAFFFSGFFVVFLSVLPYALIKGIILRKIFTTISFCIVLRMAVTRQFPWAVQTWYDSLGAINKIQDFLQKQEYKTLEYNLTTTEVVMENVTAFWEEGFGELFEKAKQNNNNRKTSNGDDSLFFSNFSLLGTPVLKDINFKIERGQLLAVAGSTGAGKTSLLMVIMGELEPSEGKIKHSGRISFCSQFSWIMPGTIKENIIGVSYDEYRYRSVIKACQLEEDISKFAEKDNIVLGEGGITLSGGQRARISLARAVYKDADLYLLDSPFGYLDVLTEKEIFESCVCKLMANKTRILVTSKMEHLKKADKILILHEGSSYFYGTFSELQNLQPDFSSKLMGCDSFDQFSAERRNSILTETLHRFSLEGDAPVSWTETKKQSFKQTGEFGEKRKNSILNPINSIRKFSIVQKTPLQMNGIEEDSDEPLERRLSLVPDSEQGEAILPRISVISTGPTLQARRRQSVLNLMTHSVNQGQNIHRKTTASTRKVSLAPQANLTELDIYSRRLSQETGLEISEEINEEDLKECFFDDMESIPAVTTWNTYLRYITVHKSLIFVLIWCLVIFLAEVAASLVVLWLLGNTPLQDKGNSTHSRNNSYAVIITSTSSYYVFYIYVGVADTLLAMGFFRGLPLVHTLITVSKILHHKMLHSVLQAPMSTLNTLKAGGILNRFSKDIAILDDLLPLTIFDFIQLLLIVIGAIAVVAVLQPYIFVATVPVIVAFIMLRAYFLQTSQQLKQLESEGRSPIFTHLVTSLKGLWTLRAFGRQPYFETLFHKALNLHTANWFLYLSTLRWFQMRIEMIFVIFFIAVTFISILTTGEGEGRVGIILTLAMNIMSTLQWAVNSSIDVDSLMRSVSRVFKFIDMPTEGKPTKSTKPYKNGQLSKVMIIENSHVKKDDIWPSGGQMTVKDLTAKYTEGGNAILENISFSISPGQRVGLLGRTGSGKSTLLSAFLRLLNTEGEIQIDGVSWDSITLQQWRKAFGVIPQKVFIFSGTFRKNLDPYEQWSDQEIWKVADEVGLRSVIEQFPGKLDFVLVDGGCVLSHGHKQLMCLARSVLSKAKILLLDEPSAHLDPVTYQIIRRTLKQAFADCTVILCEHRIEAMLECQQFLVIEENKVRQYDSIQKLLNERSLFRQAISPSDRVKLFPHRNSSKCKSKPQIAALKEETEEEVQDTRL
In words: Equivalent current assay in primary CF airway epithelial cells (NAUC, combination with 1st site corrector FDL169 or VX-809). Format: cell-based. The following applies: 37° C., 24 h; for Nauc @ 1 μM: test compound 1 μM in combination with 1st site corrector VX-809 (3 μM); for Nauc @ 3 μM: test compound 3 μM in combination with 1st site corrector VX-809 (3 μM); for Nauc @ 10 μM: test compound 10 μM in combination with 1st site corrector VX-809 (3 μM). The method, then:
Primary CF airway epithelial cells were obtained from the UNC Cystic Fibrosis Tissue Procurement and Cell Culture Core. The cells are grown at 37° C. in a Heracell 150i incubator using growth media (BEGM, Fischer). […] Two days before the Ussing assay the mucus on the apical surface of the cells was aspirated after incubating with 200 μL of differentiation media for at least thirty (30) minutes. One day before the Ussing assay test compounds were added to the basolateral surface of the cells at various test concentrations dissolved in DMSO. Duplicate wells were prepared giving a n=3 or n=4 protocol.
Cells were treated for 24 hours with various combinations and concentrations of the test articles, reference standard (3 μM VX809 or 3 μM FDL169, positive control). Compounds stock solutions were prepared in DMSO and diluted 1/1000 into ALI media to their final assay concentration. Cells were treated with combination solutions (2 mL of each dilution) and incubated at 37° C. for 24 h.
For the equivalent current assay, cells on four Transwell (24-well) plates were treated. Each Transwell plate was filled with 200 μl of HBS on the apical surface and 2 ml on the basolateral surface. Plates were placed horizontally in a heated mount at 37° C., and equilibrated for several minutes. Resting current was measured for 15 min and then blocked by the apical addition of 5 μM benzamil. After 20 min, 10 μM forskolin and 1 μM VX770 were added to both the apical and basolateral side to stimulate CFTR. An increase in chloride current is seen as an upward deflection of the trace.
The raw data, current vs. time for the Ussing chamber (sampling interval: 10 s) and voltage vs. time and resistance vs. time for the equivalent current assay (sampling interval: 5 minutes) were transferred to Excel (Microsoft Office Professional, version 14.0.7106.5003) for analysis. […] This average is equivalent to the sum of the average forskolin activated and the average VX770-potentiated currents. The average current measured in vehicle (0.1% DMSO) treated cells, Iv, was subtracted from the current for the test article, ITA, or from the corrector reference standard VX809 (3 uM ISTD). For replicate measurements, the average vehicle subtracted response for the test article, was normalized to the average vehicle subtracted inhibitor response of the reference corrector VX809 (3 μM).
A second endpoint, for the equivalent current assay, evaluated was NAUC, the normalized area under the curve (AUC) measuring the response after addition of forskolin and VX770 to the time point right before the addition of the CFTR inhibitor. The AUC is effectively the average response multiplied by the duration of the response.
NAUCTA=[AUCTA−AUCV,ave]/[AUCVx809r,ave−AUCV,ave] (Equation 2).
Experiments were run with a minimum of n=4 replicates per concentration. Since the distribution for the ratio of two normal distributions is a Cauchy distribution, the median value must be used for the average and the average deviation must be used for the error of all normalized data.
E=Emin+(Emax−Emin)/(1+10^((LogEC5OS)*nH)) (Equation 3)

With `CN(O)C(=O)C1C(C(=O)Nc2cc(Cl)cc(Cl)c2)C2CC(F)(F)CN2C12C(=O)Nc1c(Cl)cc(Cl)cc12` (single isomer, unassigned) [Example 225b, 5,7-dichloro-N1′-(3,5-dichlorophenyl)-6′,6′-difluoro-N2′-hydroxy-N2′-methyl-2-oxo-1′,2′,5′,6′,7′,7a′-hexahydrospiro[indoline-3,3′-pyrrolizine]-1′,2′-dicarboxamide], the “Nauc @ 1 μM” value was “+ (NAUC “+” refers to an observed NAUC <140% of positive control)”, the “Nauc @ 3 μM” value is given as “+++ (NAUC “+++” refers to an observed NAUC>170% of positive control)” and the “Nauc @ 10 μM” value is recorded as “+++ (NAUC “+++” refers to an observed NAUC>170% of positive control)”.
As for `O=C(Nc1cc(Cl)cc(Cl)c1)C1C2CC(F)(F)CN2C2(C(=O)Nc3c(Cl)cc(Cl)cc32)C1C(=O)NO` (single isomer, unassigned) [Example 226a, 5,7-dichloro-N1′-(3,5-dichlorophenyl)-6′,6′-difluoro-N2′-hydroxy-2-oxo-1′,2′,5′,6′,7′,7a′-hexahydrospiro[indoline-3,3′-pyrrolizine]-1′,2′-dicarboxamide], the “Nauc @ 1 μM” value is reported as “++ (NAUC “++” refers to an observed NAUC 170-140% of positive control)”, the “Nauc @ 3 μM” value is on record as “++ (NAUC “++” refers to an observed NAUC 170-140% of positive control)” and the “Nauc @ 10 μM” value is “+++ (NAUC “+++” refers to an observed NAUC>170% of positive control)”.
As to `O=C(Nc1cc(Cl)cc(Cl)c1)C1C2CC(F)(F)CN2C2(C(=O)Nc3c(Cl)cc(Cl)cc32)C1C(=O)NO` (single isomer, unassigned) [Example 226b, 5,7-dichloro-N1′-(3,5-dichlorophenyl)-6′,6′-difluoro-N2′-hydroxy-2-oxo-1′,2′,5′,6′,7′,7a′-hexahydrospiro[indoline-3,3′-pyrrolizine]-1′,2′-dicarboxamide], the “Nauc @ 1 μM” value is on record as “+ (NAUC “+” refers to an observed NAUC <140% of positive control)”, the “Nauc @ 3 μM” value is reported as “+++ (NAUC “+++” refers to an observed NAUC>170% of positive control)” and the “Nauc @ 10 μM” value was “+++ (NAUC “+++” refers to an observed NAUC>170% of positive control)”.
Regarding `CN(O)C(=O)C1C(C(=O)N(C)c2cc(Cl)cc(Cl)c2)C2CC(F)(F)CN2C12C(=O)Nc1c(Cl)cc(Cl)cc12` (single isomer, unassigned) [Example 229b, 5,7-dichloro-N1′-(3,5-dichlorophenyl)-6′,6′-difluoro-N2′-hydroxy-N1′,N2′-dimethyl-2-oxo-1′,2′,5′,6′,7′,7a′-hexahydrospiro[indoline-3,3′-pyrrolizine]-1′,2′-dicarboxamide], the “Nauc @ 10 μM” value was “+ (NAUC “+” refers to an observed NAUC <140% of positive control)”.
In the case of `CN(C(=O)[C@H]1[C@@H](C(=O)NCC(F)(F)F)[C@]2(C(=O)Nc3c(Cl)cc(Cl)cc32)N2CC(F)(F)C[C@@H]12)c1cc(Cl)cc(Cl)c1` (single isomer, unassigned) [Example 232a], the “Nauc @ 1 μM” value was “+ (NAUC “+” refers to an observed NAUC <140% of positive control)”, the “Nauc @ 3 μM” value was “+ (NAUC “+” refers to an observed NAUC <140% of positive control)” and the “Nauc @ 10 μM” value is given as “+ (NAUC “+” refers to an observed NAUC <140% of positive control)”.
As for `CN(C(=O)[C@H]1[C@H]2CC(F)(F)CN2[C@]2(C(=O)Nc3c(Cl)cc(Cl)cc32)[C@H]1C(=O)NCC(F)(F)F)c1cc(Cl)cc(Cl)c1` (single isomer, unassigned) [Example 232b], the “Nauc @ 1 μM” value is “+ (NAUC “+” refers to an observed NAUC <140% of positive control)”, the “Nauc @ 3 μM” value is “+ (NAUC “+” refers to an observed NAUC <140% of positive control)” and the “Nauc @ 10 μM” value is recorded as “+ (NAUC “+” refers to an observed NAUC <140% of positive control)”.
Turning to `O=C(Nc1cc(Cl)cc(Cl)c1)C1C2CCCN2C2(C(=O)Nc3c(Cl)cc(Cl)cc32)C1C(=O)NO` (single isomer, unassigned) [Example 234a, 5,7-dichloro-N1′-(3,5-dichlorophenyl)-N2′-hydroxy-2-oxo-1′,2′,5′,6′,7′,7a′-hexahydrospiro[indoline-3,3′-pyrrolizine]-1,2′-dicarboxamide], the “Nauc @ 1 μM” value is reported as “++ (NAUC “++” refers to an observed NAUC 170-140% of positive control)”, the “Nauc @ 3 μM” value is listed as “++ (NAUC “++” refers to an observed NAUC 170-140% of positive control)” and the “Nauc @ 10 μM” value was “++ (NAUC “++” refers to an observed NAUC 170-140% of positive control)”.
As for `O=C(Nc1cc(Cl)cc(Cl)c1)C1C2CCCN2C2(C(=O)Nc3c(Cl)cc(Cl)cc32)C1C(=O)NO` (single isomer, unassigned) [Example 234b, 5,7-dichloro-N1′-(3,5-dichlorophenyl)-N2′-hydroxy-2-oxo-1′,2′,5′,6′,7′,7a′-hexahydrospiro[indoline-3,3′-pyrrolizine]-1,2′-dicarboxamide], the “Nauc @ 1 μM” value is “+ (NAUC “+” refers to an observed NAUC <140% of positive control)”, the “Nauc @ 3 μM” value was “++ (NAUC “++” refers to an observed NAUC 170-140% of positive control)” and the “Nauc @ 10 μM” value is on record as “+++ (NAUC “+++” refers to an observed NAUC>170% of positive control)”.
On the same counts, the results for `CN(O)C(=O)C1C(C(=O)Nc2cc(Cl)cc(Cl)c2)C2CCCN2C12C(=O)Nc1c(Cl)cc(Cl)cc12` (single isomer, unassigned) [Example 235a, 5,7-dichloro-N1′-(3,5-dichlorophenyl)-N2′-hydroxy-N2′-methyl-2-oxo-1′,2′,5′,6′,7′,7a′-hexahydrospiro[indoline-3,3′-pyrrolizine]-1′,2′-dicarboxamide] are “++ (NAUC “++” refers to an observed NAUC 170-140% of positive control)”, “+++ (NAUC “+++” refers to an observed NAUC>170% of positive control)” and “+++ (NAUC “+++” refers to an observed NAUC>170% of positive control)”.
On to `CN(O)C(=O)C1C(C(=O)Nc2cc(Cl)cc(Cl)c2)C2CCCN2C12C(=O)Nc1c(Cl)cc(Cl)cc12` (single isomer, unassigned) [Example 235b, 5,7-dichloro-N1′-(3,5-dichlorophenyl)-N2′-hydroxy-N2′-methyl-2-oxo-1′,2′,5′,6′,7′,7a′-hexahydrospiro[indoline-3,3′-pyrrolizine]-1′,2′-dicarboxamide], for which the “Nauc @ 1 μM” value was “+++ (NAUC “+++” refers to an observed NAUC>170% of positive control)”, the “Nauc @ 3 μM” value is reported as “+++ (NAUC “+++” refers to an observed NAUC>170% of positive control)” and the “Nauc @ 10 μM” value was “+++ (NAUC “+++” refers to an observed NAUC>170% of positive control)”.
`Cn1cnc(NC(=O)[C@H]2[C@@H](C(=O)Nc3cc(Cl)cc(Cl)c3)[C@H]3CCCN3[C@]23C(=O)Nc2c(Cl)cc(Cl)cc23)c1` (single isomer, unassigned) [Example 237, (1′R,2′S,7a′R)-5,7-dichloro-N1′-(3,5-dichlorophenyl)-N2′-(1-methyl-1H-imidazol-4-yl)-2-oxo-1′,2′,5′,6′,7′,7a′-hexahydrospiro[indoline-3,3′-pyrrolizine]-1′,2′-dicarboxamide]: the “Nauc @ 1 μM” value was “+ (NAUC “+” refers to an observed NAUC <140% of positive control)”, the “Nauc @ 3 μM” value was “+ (NAUC “+” refers to an observed NAUC <140% of positive control)” and the “Nauc @ 10 μM” value is reported as “++ (NAUC “++” refers to an observed NAUC 170-140% of positive control)”.
Turning to `Cn1ccnc1NC(=O)[C@H]1[C@@H](C(=O)Nc2cc(Cl)cc(Cl)c2)[C@H]2CCCN2[C@]12C(=O)Nc1c(Cl)cc(Cl)cc12` (single isomer, unassigned) [Example 238, (1′R,2′S,7a′R)-5,7-dichloro-N1′-(3,5-dichlorophenyl)-N2′-(1-methyl-1H-imidazol-2-yl)-2-oxo-1′,2′,5′,6′,7′,7a′-hexahydrospiro[indoline-3,3′-pyrrolizine]-1′,2′-dicarboxamide], the “Nauc @ 1 μM” value was “+ (NAUC “+” refers to an observed NAUC <140% of positive control)” and the “Nauc @ 3 μM” value is “+ (NAUC “+” refers to an observed NAUC <140% of positive control)”.
